Experimental data taken from US20040208783A1, “Process for the chemical and thermal disinfection” (priority 2003, published 2004).

Key:
Type in all cases: cell-based
[1] = system: bacteria, fungi and mycobacteria; assay: Quantitative suspension tests, summary of activity in words
[2] = system: Pseudomonas aeruginosa; assay: Quantitative suspension test, reduction factors (Test 1)
Protocol: (§1) Reduction factors were obtained with various solutions for use (SA=Staphylococcus aureus, PA=Pseudomonas aeruginosa, EC=Escherichia coli, CA=Candida albicans, AN=Aspergillus niger, MT=Mycobacterium terrae), initial microbe count 0.8−5×10^9/ml, for CA 2×10^7/ml, neutralizer Tryp-NaCl-TLSH (No. 22). Concerning the activity on Mycobacterium terrae, cf.
(§2) […] After acting for times of 5, 15, 30 and 60 minutes, 1 ml samples of the disinfectant/microbe mixture are taken and transferred into 9 ml of inactivation liquid (0.1% tryptone+0.85% NaCl in double-distilled water+inactivators). After a contact time not exceeding 30 minutes in the inactivation liquid, dilutions (10^−2 and 10^−4 in 0.1% tryptone+0.85% NaCl in double-distilled water) are made up. 0.1 ml samples of the inactivation liquid and the two dilutions are then transferred by spatula onto 3 CSA plates for each. As a control, the respective test microbe suspension is mixed with 10 ml of WSH in place of disinfectant. Subcultures are to be set up from this batch in the same way in parallel with the corresponding action times.
(§3) All subcultures are incubated at 37° C. for 48 hours, in the case of Candida albicans at 37° C. for 72 hours, and the colonies are counted. The reduction is calculated as follows: CFU between 20 and 300 per CSA plate are to be evaluated. After determination of the arithmetic mean of three values, the disinfectant effect (GRt) per unit time is calculated from the formula GRt=logCFU(co) minus logCFU(D) in which CFU(co) is the number of CFU per ml without exposure to the product, and CFU(D) is the number of CFU per ml after exposure to the product.

[3] = system: Aspergillus niger; assay: as above
Protocol: as §1, §2, §3

[4] = system: Candida albicans; assay: as above
Protocol: as §1, §2, §3

[5] = system: Staphylococcus aureus; assay: as above
Protocol: as §1, §2, §3

[6] = system: Escherichia coli; assay: as above
Protocol: as §1, §2, §3

[7] = system: Mycobacterium terrae (ATCC15755); assay: Mycobacterium terrae quantitative suspension test without stress (Test 2); conditions: for Reduction factor: 0.1%

## CCCCC(CC)COCC(O)CO (centres unmarked) [SC 50, 1-(2-Ethylhexyl)glycerol ether]
[1]; 0.1% by weight solution, 50° C.
  Activity (in words): broad activity on gram-positive and gram-negative bacteria, yeasts and mycobacteria
[1]; 0.1% by weight, low temperature
  Activity (in words): virtually no antimicrobial activity
[1]; above 25° C.
  Activity on bacteria (gram-positive and gram-negative) and mycobacteria (in words): particularly active
[1]; use concentration 0.1% by weight
  Activity on yeasts (e.g. Candida albicans) and moulds (e.g. Aspergillus niger) (in words): still requires improvement
[2]; 0.05%, 30° C., 15′
  Reduction factor: 0.00
[2]; 0.05%, 30° C., 30′
  Reduction factor: 0.00
[2]; 0.05%, 30° C., 60′
  Reduction factor: 0.00
[2]; 0.05%, 40° C., 15′
  Reduction factor: 0.00
[2]; 0.05%, 40° C., 30′
  Reduction factor: 0.00
[2]; 0.05%, 40° C., 60′
  Reduction factor: 0.00
[2]; 0.05%, 50° C., 15′
  Reduction factor: 0.00
[2]; 0.05%, 50° C., 30′
  Reduction factor: 0.85
[2]; 0.05%, 50° C., 60′
  Reduction factor: 0.96
[2]; 0.05%, room temperature, 15′
  Reduction factor: 0.00
[2]; 0.05%, room temperature, 30′
  Reduction factor: 0.00
[2]; 0.05%, room temperature, 60′
  Reduction factor: 0.00
[2]; 0.1%, 30° C., 15′
  Reduction factor: 0.00
[2]; 0.1%, 30° C., 30′
  Reduction factor: 0.00
[2]; 0.1%, 30° C., 60′
  Reduction factor: 1.01
[2]; 0.1%, 40° C., 15′
  Reduction factor: 1.03
[2]; 0.1%, 40° C., 30′
  Reduction factor: 1.10
[2]; 0.1%, 40° C., 60′
  Reduction factor: 1.14
[2]; 0.1%, 50° C., 15′
  Reduction factor: 3.55
[2]; 0.1%, 50° C., 30′
  Reduction factor: 3.50
[2]; 0.1%, 50° C., 60′
  Reduction factor: 4.00
[2]; 0.1%, room temperature, 15′
  Reduction factor: 0.00
[2]; 0.1%, room temperature, 30′
  Reduction factor: 0.00
[2]; 0.1%, room temperature, 60′
  Reduction factor: 0.00
[3]; 0.05%, 30° C., 15′
  Reduction factor: 0.08
[3]; 0.05%, 30° C., 30′
  Reduction factor: 0.70
[3]; 0.05%, 30° C., 60′
  Reduction factor: 0.60
[3]; 0.05%, 50° C., 15′
  Reduction factor: 0.12
[3]; 0.05%, 50° C., 30′
  Reduction factor: 0.12
[3]; 0.05%, 50° C., 60′
  Reduction factor: −0.12
[3]; 0.05%, room temperature, 15′
  Reduction factor: 0.30
[3]; 0.05%, room temperature, 30′
  Reduction factor: −0.10
[3]; 0.05%, room temperature, 60′
  Reduction factor: 0.22
[3]; 0.1%, 30° C., 15′
  Reduction factor: 0.30
[3]; 0.1%, 30° C., 30′
  Reduction factor: 0.70
[3]; 0.1%, 30° C., 60′
  Reduction factor: 0.60
[3]; 0.1%, 50° C., 15′
  Reduction factor: −0.10
[3]; 0.1%, 50° C., 30′
  Reduction factor: 0.30
[3]; 0.1%, 50° C., 60′
  Reduction factor: 0.18
[3]; 0.1%, room temperature, 15′
  Reduction factor: −0.35
[3]; 0.1%, room temperature, 30′
  Reduction factor: −0.10
[3]; 0.1%, room temperature, 60′
  Reduction factor: 0.40
[4]; 0.05%, 30° C., 15′
  Reduction factor: 0.00
[4]; 0.05%, 30° C., 30′
  Reduction factor: 0.00
[4]; 0.05%, 30° C., 60′
  Reduction factor: 0.00
[4]; 0.05%, 40° C., 15′
  Reduction factor: 0.54
[4]; 0.05%, 40° C., 30′
  Reduction factor: 0.45
[4]; 0.05%, 40° C., 60′
  Reduction factor: 0.59
[4]; 0.05%, 50° C., 15′
  Reduction factor: 0.00
[4]; 0.05%, 50° C., 30′
  Reduction factor: 0.00
[4]; 0.05%, 50° C., 60′
  Reduction factor: 1.08
[4]; 0.05%, room temperature, 15′
  Reduction factor: 0.00
[4]; 0.05%, room temperature, 30′
  Reduction factor: 0.00
[4]; 0.05%, room temperature, 60′
  Reduction factor: 0.00
[4]; 0.1%, 30° C., 15′
  Reduction factor: 0.10
[4]; 0.1%, 30° C., 30′
  Reduction factor: −0.08
[4]; 0.1%, 30° C., 60′
  Reduction factor: 0.64
[4]; 0.1%, 40° C., 15′
  Reduction factor: 0.55
[4]; 0.1%, 40° C., 30′
  Reduction factor: 0.46
[4]; 0.1%, 40° C., 60′
  Reduction factor: 0.65
[4]; 0.1%, 50° C., 15′
  Reduction factor: 1.07
[4]; 0.1%, 50° C., 30′
  Reduction factor: 1.53
[4]; 0.1%, 50° C., 60′
  Reduction factor: 4.20
[4]; 0.1%, room temperature, 15′
  Reduction factor: 0.00
[4]; 0.1%, room temperature, 30′
  Reduction factor: 0.00
[4]; 0.1%, room temperature, 60′
  Reduction factor: 0.00
[5]; 0.05%, 30° C., 15′
  Reduction factor: 0.00
[5]; 0.05%, 30° C., 30′
  Reduction factor: 0.00
[5]; 0.05%, 30° C., 60′
  Reduction factor: 0.00
[5]; 0.05%, 40° C., 15′
  Reduction factor: 0.70
[5]; 0.05%, 40° C., 30′
  Reduction factor: 0.88
[5]; 0.05%, 40° C., 60′
  Reduction factor: 0.57
[5]; 0.05%, 50° C., 15′
  Reduction factor: 0.58
[5]; 0.05%, 50° C., 30′
  Reduction factor: 0.81
[5]; 0.05%, 50° C., 60′
  Reduction factor: 0.29
[5]; 0.05%, room temperature, 15′
  Reduction factor: 0.00
[5]; 0.05%, room temperature, 30′
  Reduction factor: 0.00
[5]; 0.05%, room temperature, 60′
  Reduction factor: 0.00
[5]; 0.1%, 30° C., 15′
  Reduction factor: 0.78
[5]; 0.1%, 30° C., 30′
  Reduction factor: 0.53
[5]; 0.1%, 30° C., 60′
  Reduction factor: 0.35
[5]; 0.1%, 40° C., 15′
  Reduction factor: 0.97
[5]; 0.1%, 40° C., 30′
  Reduction factor: 1.56
[5]; 0.1%, 40° C., 60′
  Reduction factor: 1.45
[5]; 0.1%, 50° C., 15′
  Reduction factor: 2.44
[5]; 0.1%, 50° C., 30′
  Reduction factor: 4.93
[5]; 0.1%, 50° C., 60′
  Reduction factor: 4.70
[5]; 0.1%, room temperature, 15′
  Reduction factor: 0.00
[5]; 0.1%, room temperature, 30′
  Reduction factor: 0.00
[5]; 0.1%, room temperature, 60′
  Reduction factor: 0.96
[6]; 0.05%, 30° C., 15′
  Reduction factor: 0.13
[6]; 0.05%, 30° C., 30′
  Reduction factor: 0.25
[6]; 0.05%, 30° C., 60′
  Reduction factor: 0.36
[6]; 0.05%, 40° C., 15′
  Reduction factor: 0.00
[6]; 0.05%, 40° C., 30′
  Reduction factor: 0.00
[6]; 0.05%, 40° C., 60′
  Reduction factor: 0.00
[6]; 0.05%, 50° C., 15′
  Reduction factor: 1.17
[6]; 0.05%, 50° C., 30′
  Reduction factor: 1.70
[6]; 0.05%, 50° C., 60′
  Reduction factor: 2.85
[6]; 0.05%, room temperature, 15′
  Reduction factor: 0.00
[6]; 0.05%, room temperature, 30′
  Reduction factor: 0.43
[6]; 0.05%, room temperature, 60′
  Reduction factor: 0.25
[6]; 0.1%, 30° C., 15′
  Reduction factor: 0.54
[6]; 0.1%, 30° C., 30′
  Reduction factor: 0.58
[6]; 0.1%, 30° C., 60′
  Reduction factor: 1.15
[6]; 0.1%, 40° C., 15′
  Reduction factor: 1.84
[6]; 0.1%, 40° C., 30′
  Reduction factor: 3.27
[6]; 0.1%, 40° C., 60′
  Reduction factor: 3.46
[6]; 0.1%, 50° C., 15′
  Reduction factor: 3.74
[6]; 0.1%, 50° C., 30′
  Reduction factor: 4.95
[6]; 0.1%, 50° C., 60′
  Reduction factor: 4.90
[6]; 0.1%, room temperature, 15′
  Reduction factor: 0.00
[6]; 0.1%, room temperature, 30′
  Reduction factor: 0.54
[6]; 0.1%, room temperature, 60′
  Reduction factor: 0.50
[7]; 0.05% by weight, 50° C., 60 minutes
  Activity on Mycobacterium terrae (in words): neither 0.05% by weight SC 50 nor 0.75% by weight POE, even acting for a time of 60 minutes, display any activity
[7]; 30° C., 15′
  Reduction factor: 0.00
[7]; 30° C., 30′
  Reduction factor: 0.00
[7]; 30° C., 60′
  Reduction factor: 0.00
[7]; 40° C., 15′
  Reduction factor: 0.00
[7]; 40° C., 30′
  Reduction factor: 0.00
[7]; 40° C., 60′
  Reduction factor: 0.00
[7]; 50° C., 15′
  Reduction factor: 3.10
[7]; 50° C., 30′
  Reduction factor: 3.34
[7]; 50° C., 60′
  Reduction factor: 3.48
[7]; room temperature, 15′
  Reduction factor: 0.00
[7]; room temperature, 30′
  Reduction factor: 0.00
[7]; room temperature, 60′
  Reduction factor: 0.00
